Results: patent publication US11083723B2, “Use of roluperidone to treat negative symptoms and disorders, increase neuroplasticity, and promote neuroprotection” (Minerva Neurosciences, Inc., priority 2018, dated 2021)
pKi: −log10 of the molar value. Where a name gives a salt, the structure may show the parent alone.

Experiments:
[1] = biological target: sigma1 receptors (Homo sapiens, UniProt Q99720); assay: Molecular binding profile, sigma1
[2] = system: muscarinic receptors; assay: Receptor affinity, muscarinic; assay type: binding
[3] = system: GDNF release by primary rat astrocytes; assay: GDNF release by primary rat astrocytes, in situ ELISA; assay type: cell-based; details: 5 days incubation
Experimental: Experimental Protocol-In Situ ELISA on Primary Astrocytes Rat Primary Culture of Astrocytes Rat mixed glial cells were cultured as described by McCarthy et al. Primary rat glial cells were prepared from the cortical of newborn Wistar rats (1 day). Briefly, meninges and blood vessels of the mice cortex were removed and placed in ice-cold medium of Leibovitz (L15; PanBiotech, ref P04-27055, batch 4511117) containing 2% Penicillin-Streptomycin (PS; PanBiotech, ref P06-07100, batch 2110917) and 1% of bovine serum albumin (BSA; […] Cells were then submitted to a supplementary incubation of 15 min. at 37° C. in presence of deoxyribonuclease I (0.1 mg/mL Panbiotech, ref: P60-37780100, batch: H140508). Cells were then pelleted (5 min. at 1200 rpm) and trypsinization was stopped by adding DMEM (PanBiotech, Ref P04-03600, Batch 8420517) supplemented with 10% FCS (Fischer, Ref 10270106, batch 41A0940K), 1 mM of Na/pyruvate (PanBiotech, ref: P04-43100, batch 3470914). Cells suspension was mechanically dissociated and filtered through […] diameter nylon meshes (BD Falcon, Ref: 352340). The cells were collected by centrifugation at 1200 rpm/min for 10 min, resuspended in culture medium and then plated in culture flasks (Dutscher, ref: 690175). Cells were seeded at a density of 1.25×10^5 cells/cm^2 and culture in 5% CO2 at 37° C. Medium was changed 3 times per week. At confluency, astrocytes were plated in 96-well Nunc MaxiSorp surface polystyrene flat-bottom immunoplate precoated with poly-D-lysine during 30 min (Sigma, Ref: […], batch: SLBS8705) and an anti-GDNF monoclonal antibody overnight at 4° C. at a density of 30,000 cells/well. […] At the end of drug treatment, cells were carefully washed with TBST (20 mM Tris-HCl (pH 7.6), 150 mM NaCl, and 0.05% (vol/vol) Tween 20). The plate was then incubated with the polyclonal anti-human GDNF antibody overnight. The amount of specifically bound polyclonal antibody, which when exposed to chromogenic substrate (TMB reagent; Promega), changes color in proportion to the amount of GDNF present in the sample. The color intensity was quantified by measuring the absorbance at 450 nm. GDNF standards, ranging in concentration from 0 to 500 pg/mL were added in parallel wells in the same medium than hippocampal neurons.

[4] = system: BDNF release by primary hippocampal neurons; assay: BDNF release by primary hippocampal neurons, in situ ELISA; assay type: cell-based, rat; details: 3 days incubation
Experimental: Hippocampal neurons were plated in 96-well Nunc MaxiSorp surface polystyrene flat-bottom immunoplate precoated with poly-D-lysine during 30 min an anti-BDNF monoclonal antibody overnight at 4° C. at a density of 70,000 cells/well. […] At the end of drug treatment, cells were carefully washed with TBST (20 mM Tris-HCl (pH 7.6), 150 mM NaCl, and 0.05% (vol/vol) Tween 20). The plate was then incubated with the polyclonal anti-human BDNF antibody overnight and BDNF quantified.
Experimental Protocol—In Situ ELISA on Primary Hippocampal Neurons Hippocampal Neuron Culture
Newborn rats (Wistar rats, Janvier) were deeply anesthetized by hypothermia and decapitated. […] Cells were mechanically dissociated by 3 passages through a 10 ml pipette. Cells were then centrifuged at 515×g for 10 min at 4° C. […] Viable cells were counted in a Neubauer cytometer using the trypan blue exclusion test.
Hippocampal neurons were plated in 96-well Nunc MaxiSorp surface polystyrene flat-bottom immunoplate precoated with poly-D-lysine during 30 min (Sigma, Ref: P7886, batch: SLBS8705) an anti-BDNF monoclonal antibody overnight at 4° C. at a density of 70000 cells/well.
At the end of drug treatment, cells were carefully washed with TBST (20 mM Tris-HCl (pH 7.6), 150 mM NaCl, and 0.05% (vol/vol) Tween 20). The plate was then incubated with the polyclonal anti-human BDNF antibody overnight. The amount of specifically bound polyclonal antibody was then detected through the use of the anti-IgY-horseradish peroxidase tertiary antibody, which when exposed to the chromogenic substrate (TMB reagent; Promega), changes color in proportion to the amount of BDNF present in the sample. The color intensity was quantified by measuring the absorbance at 450 nm.

[5] = system: negative symptoms in schizophrenia; assay: Phase 2b clinical study, negative symptoms in schizophrenia; assay type: in vivo, human; details: both tested doses (32 mg and 64 mg)
[6] = biological target: sigma2 receptors (Homo sapiens, UniProt Q5BJF2); assay: Molecular binding profile, sigma2
Sequence of sigma2 receptors (Q5BJF2 whole entry): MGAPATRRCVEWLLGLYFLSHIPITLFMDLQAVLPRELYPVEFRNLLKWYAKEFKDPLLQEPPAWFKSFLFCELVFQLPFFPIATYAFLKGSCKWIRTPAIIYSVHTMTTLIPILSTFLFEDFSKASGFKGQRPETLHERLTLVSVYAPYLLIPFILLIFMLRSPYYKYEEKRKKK

[7] = modified release (MR) formulation of Compound (I) that reduces QT prolongation; cited from earlier work

Sequence of sigma1 receptors (Q99720 whole entry): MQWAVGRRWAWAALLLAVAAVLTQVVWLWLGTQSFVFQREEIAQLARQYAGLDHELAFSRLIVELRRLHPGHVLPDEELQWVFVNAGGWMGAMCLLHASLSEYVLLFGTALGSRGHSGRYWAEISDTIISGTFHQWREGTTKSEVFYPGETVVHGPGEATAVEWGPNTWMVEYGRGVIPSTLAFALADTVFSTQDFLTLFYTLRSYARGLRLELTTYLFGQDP

O=C(CN1CCC(CN2Cc3ccccc3C2=O)CC1)c1ccc(F)cc1 [Compound (I), 1H-Isoindol-1-one, 2-[[1-[2-(4-Fluorophenyl)-2-oxoethyl]-4-piperidinyl]methyl]-2,3-dihydro-, hydrochloride, hydrate (1:1:2)]
pKi [1]: 6.60 | affinity for muscarinic receptors [2]: no affinity | GDNF release astrocytes, % increase of control conditions ([3]; 3 nM): 11.4% | GDNF release astrocytes, % increase of control conditions ([3]; 10 nM): 13.8% | GDNF release astrocytes, % increase of control conditions ([3]; 30 nM): 14.2% | GDNF release astrocytes, % increase of control conditions ([3]; 100 nM): 14.8% | GDNF release astrocytes, % increase of control conditions ([3]; 300 nM): 20.8% | GDNF release astrocytes, % increase of control conditions ([3]; 1 μM): 17.5% | BDNF release hippocampal neurons, % increase of control conditions ([4]; 30 nM): 11.0% | BDNF release hippocampal neurons, % increase of control conditions ([4]; 100 nM): 14.9% | BDNF release hippocampal neurons, % increase of control conditions ([4]; 300 nM): 27.5% | BDNF release hippocampal neurons, % increase of control conditions ([4]; 1 μM): 24.3% | benefit over placebo in improving negative symptoms in schizophrenia [5]: statistically significant benefit | pKi [6]: 8.09 | selectivity sigma2 versus sigma1 receptors ([6]; sigma2 versus sigma1): 30 fold | maximum plasma concentration (Cmax) [7]: below 80 ng/mL
